Results taken from PMC7093421, “Perfluorooctane sulfonate (PFOS) and perfluorooctanoate (PFOA) acutely affect human α1β2γ2L GABAA receptor and spontaneous neuronal network function in vitro” (Scientific Reports, 2020).

Biological target: T1, human α1β2γ2L GABAA receptor (Homo sapiens, UniProt P14867+P18507+P47870)
T1 construct: gene GABRA1; α1β2γ2L receptor expressed in Xenopus laevis oocytes; with GABRB2 (β2) and GABRG2 (γ2L) subunits
Test: two-electrode voltage clamp in Xenopus oocytes, inhibition of GABA-evoked current ([…] GABA)
Type: cell-based

T1 sequence (P14867 28-456): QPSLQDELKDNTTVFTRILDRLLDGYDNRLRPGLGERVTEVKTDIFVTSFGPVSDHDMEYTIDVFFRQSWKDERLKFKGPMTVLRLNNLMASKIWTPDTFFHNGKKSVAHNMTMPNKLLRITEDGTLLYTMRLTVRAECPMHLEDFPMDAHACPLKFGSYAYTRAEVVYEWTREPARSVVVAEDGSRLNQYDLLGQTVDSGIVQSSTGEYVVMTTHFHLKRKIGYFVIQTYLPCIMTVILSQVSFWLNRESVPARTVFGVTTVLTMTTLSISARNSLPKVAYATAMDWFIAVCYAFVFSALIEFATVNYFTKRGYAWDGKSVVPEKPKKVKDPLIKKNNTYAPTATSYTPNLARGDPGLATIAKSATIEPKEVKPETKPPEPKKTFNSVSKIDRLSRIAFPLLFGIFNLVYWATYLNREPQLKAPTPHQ
T1 sequence (P47870 26-512): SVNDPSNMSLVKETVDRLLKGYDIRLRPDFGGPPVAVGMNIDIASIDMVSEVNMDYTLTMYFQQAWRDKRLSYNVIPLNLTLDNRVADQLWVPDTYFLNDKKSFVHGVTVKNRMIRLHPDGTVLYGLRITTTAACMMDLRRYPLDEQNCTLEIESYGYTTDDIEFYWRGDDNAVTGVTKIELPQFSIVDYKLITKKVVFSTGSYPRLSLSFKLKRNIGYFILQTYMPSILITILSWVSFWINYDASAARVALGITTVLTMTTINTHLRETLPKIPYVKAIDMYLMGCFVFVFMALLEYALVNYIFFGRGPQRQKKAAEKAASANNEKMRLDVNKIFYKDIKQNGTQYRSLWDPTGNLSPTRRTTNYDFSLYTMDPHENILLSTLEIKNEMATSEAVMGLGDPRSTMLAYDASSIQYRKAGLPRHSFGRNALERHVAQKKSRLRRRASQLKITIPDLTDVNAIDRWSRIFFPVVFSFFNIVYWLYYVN
T1 sequence (P18507 40-475): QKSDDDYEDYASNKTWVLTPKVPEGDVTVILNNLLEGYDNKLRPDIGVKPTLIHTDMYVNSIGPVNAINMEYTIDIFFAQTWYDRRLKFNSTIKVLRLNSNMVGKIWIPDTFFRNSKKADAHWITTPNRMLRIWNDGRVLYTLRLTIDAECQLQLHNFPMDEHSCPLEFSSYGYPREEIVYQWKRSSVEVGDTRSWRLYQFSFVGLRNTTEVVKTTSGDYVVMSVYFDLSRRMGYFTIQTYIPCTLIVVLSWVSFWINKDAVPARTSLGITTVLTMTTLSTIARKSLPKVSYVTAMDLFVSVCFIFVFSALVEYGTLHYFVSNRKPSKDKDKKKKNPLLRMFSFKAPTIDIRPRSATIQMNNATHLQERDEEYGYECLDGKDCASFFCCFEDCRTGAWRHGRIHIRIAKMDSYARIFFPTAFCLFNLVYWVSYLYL

Row | Compound | IC50 [µM]
1 | O=S(=O)(O)C(F)(F)C(F)(F)C(F)(F)C(F)(F)C(F)(F)C(F)(F)C(F)(F)C(F)(F)F [PFOS] | 0.18
2 | O=C(O)C(F)(F)C(F)(F)C(F)(F)C(F)(F)C(F)(F)C(F)(F)C(F)(F)F [PFOA] | 6.7
